Patent US12351628B2, “Modified membrane spanning proteins and methods for the preparation and use thereof” (priority 2014, dated 2025)
In brackets after ≈: the same amount, converted by molar mass. Like-named read-outs stand apart in the source and are kept apart here.

Tested on: E. coli strains (e.g. BL21 or DH10beta)
Assay: Growth of E. coli on LB medium with varying antibiotic concentrations (MIC), liquid and agar plates
Assay type: cell-based
Conditions: for Antibiotic concentration to which resistance is conferred: E. coli transformed with isolated mutated GPR55 clones; for MIC: Escherichia coli
Description: The construct library containing modified genes is then used to transform E. coli strains (e.g. BL21 or DH10beta). Growth is tested on LB medium with varying concentrations of kanamycin (MIC for untransformed cells is approximately 10 mg/L), both in liquid and agar plates.

[1] = E. coli containing a plasmid encoding wild type human GPR55
[2] = read-out: Apparent MIC, E. coli expressing certain constructs containing wild type rat NTSR1 (aa 43-424)

| SMILES | Antibiotic concentration to which resistance is conferred [mg/L] | MIC [1] [µg/mL] | MIC [2] [µg/mL] | MIC (untransformed E. coli cells, LB medium) [µg/mL] |
| --- | --- | --- | --- | --- |
| CC1(C)S[C@@H]2[C@H](NC(=O)C(C(=O)O)c3ccccc3)C(=O)N2[C@H]1C(=O)O (stereo partly shown) [carbenicillin] | > 80 | ~40 (≈ 106 µM) | > 75 | – |
| NC[C@H]1O[C@H](O[C@H]2[C@H](O)[C@@H](O[C@H]3O[C@H](CO)[C@@H](O)[C@H](N)[C@H]3O)[C@H](N)C[C@@H]2N)[C@H](O)[C@@H](O)[C@@H]1O [kanamycin] | > 50 | ~25 (≈ 51.6 µM) | > 50 | ~10 (≈ 20.6 µM) |
